Source: patent publication US6673799B1, “Cyanophenyl derivative” (priority 1998, dated 2004)

Key:
rat androgen receptor = molecular target: T1, rat androgen receptor (Rattus norvegicus, UniProt P15207); experiment: biochemical; conditions: 3H-mibolerone 1 nM, rat prostate cytosol; Ki calculated from IC50 by Cheng and Prusoff; read-out: Binding activity for rat androgen receptor (Ki = nM)
T1 construct: The cytosol fraction obtained in the step (1) was adjusted to a protein concentration of 1 mg/ml and used as a rat androgen receptor solution; from tissue; host or cells: rat ventral prostate gland cytosol fraction (male Wistar rats, castrated)
T1 sequence (P15207 1-902): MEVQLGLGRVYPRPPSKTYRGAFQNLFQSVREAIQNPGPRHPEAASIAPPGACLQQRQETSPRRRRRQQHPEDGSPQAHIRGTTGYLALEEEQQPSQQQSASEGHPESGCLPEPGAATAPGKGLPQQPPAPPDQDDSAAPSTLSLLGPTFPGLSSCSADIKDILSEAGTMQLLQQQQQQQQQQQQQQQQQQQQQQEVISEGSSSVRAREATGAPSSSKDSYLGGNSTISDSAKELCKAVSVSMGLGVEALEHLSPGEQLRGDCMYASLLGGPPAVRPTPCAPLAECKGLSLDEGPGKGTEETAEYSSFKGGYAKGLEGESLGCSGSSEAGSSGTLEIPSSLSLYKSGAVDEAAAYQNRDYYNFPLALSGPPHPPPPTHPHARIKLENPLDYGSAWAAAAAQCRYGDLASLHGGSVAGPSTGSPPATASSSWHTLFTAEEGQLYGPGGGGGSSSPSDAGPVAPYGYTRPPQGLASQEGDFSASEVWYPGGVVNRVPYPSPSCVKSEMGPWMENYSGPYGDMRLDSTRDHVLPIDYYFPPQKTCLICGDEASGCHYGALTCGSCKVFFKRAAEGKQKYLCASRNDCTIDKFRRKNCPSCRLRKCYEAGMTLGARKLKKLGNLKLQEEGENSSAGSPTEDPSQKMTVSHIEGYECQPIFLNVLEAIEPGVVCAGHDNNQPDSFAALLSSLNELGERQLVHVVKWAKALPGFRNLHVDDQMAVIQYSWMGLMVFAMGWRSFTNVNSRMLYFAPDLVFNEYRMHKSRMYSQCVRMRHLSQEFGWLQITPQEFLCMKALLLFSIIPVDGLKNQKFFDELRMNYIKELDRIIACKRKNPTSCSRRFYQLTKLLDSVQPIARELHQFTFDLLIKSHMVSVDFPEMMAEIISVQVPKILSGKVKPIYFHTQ

melting point [°C] | Structure (SMILES) | Ki (rat androgen receptor) [nM]
163 to 165 | C[C@@H]1CN(c2ccc(C#N)c(C(F)(F)F)c2)[C@@H](C)CN1C(=O)Nc1ccc(F)nc1 | –
199 to 200 | CC1(C)CN(c2ccc(C#N)c(C(F)(F)F)c2)CN1C(=O)Nc1ccc(F)cc1 | –
191 to 193 | CC(=O)Nc1nccc(NC(=O)N2C[C@@H](C)N(c3ccc(C#N)c(C(F)(F)F)c3)C[C@@H]2C)n1 (racemic) | –
208 to 211 | C[C@@H]1CN(C(=O)Nc2ccnc(N)c2)[C@@H](C)CN1c1ccc(C#N)c(C(F)(F)F)c1 (racemic) | –
200 to 203 | C[C@@H]1CN(C(=O)Nc2ccc(F)cc2)[C@@H](C)CN1c1ccc(C#N)c(C(F)(F)F)c1 (relative stereo) | –
173 to 175 | C[C@@H]1CN(c2ccc(C#N)c(C(F)(F)F)c2)[C@@H](C)CN1C(=O)N1CC[S+]([O-])CC1 (relative stereo) | –
152.5 to 153.5 | C[C@@H]1CN(C(=O)NC(C)(C)c2ccccc2)[C@@H](C)CN1c1ccc(C#N)c(C(F)(F)F)c1 (relative stereo) | –
– | C[C@@H]1CN(c2ccc(C#N)c(C(F)(F)F)c2)[C@@H](C)CN1C(=O)Nc1ccnc(Br)c1 [Example 6-1, (2R,5S)-N-(2-Bromo-4-pyridyl)-4-(4-cyano-3-trifluoromethylphenyl)-2,5-dimethylpiperazine-1-carboxamide] | 7.56
– | CNC(=O)c1cc(NC(=O)N2C[C@H](C)N(c3ccc(C#N)c(C(F)(F)F)c3)C[C@H]2C)ccn1 [Example 13-1, (2R,5S)-4-(4-Cyano-3-trifluoromethylphenyl)-2,5-dimethyl-N-(2-methylcarbamoyl-4-pyridyl)piperazine-1-carboxamide] | 1.91
– | C[C@@H]1CN(c2ccc(C#N)c(C(F)(F)F)c2)[C@@H](C)CN1C(=O)Nc1ccnc(F)c1 [Example 18-8, (2R,5S)-4-(4-Cyano-3-trifluoromethylphenyl)-N-(2-fluoro-4-pyridyl)-2,5-dimethylpiperazine-1-carboxamide] | 15.6
– | C[C@@H]1CN(c2ccc(C#N)c(C(F)(F)F)c2)[C@@H](C)CN1C(=O)Nc1ccnc(N)n1 [Example 21, (2R,5S)-N-(2-Amino-pyrimidin-4-yl)-4-(4-cyano-3-trifluoromethylphenyl)-2,5-dimethylpiperazine-1-carboxamide] | 1.81

Structure (SMILES) | melting point [°C] | Ki (rat androgen receptor) [nM]
COc1ccc(NC(=O)N2C[C@H](C)N(c3ccc(C#N)c(C(F)(F)F)c3)C[C@H]2C)cn1 [Example 6-13, (2R,5S)-4-(4-Cyano-3-trifluoromethylphenyl)-N-(6-methoxy-3-pyridyl)-2,5-dimethylpiperazine-1-carboxamide] | 184 to 185 | 3.58
C[C@@H]1CN(c2ccc(C#N)c(C(F)(F)F)c2)[C@@H](C)CN1C(=O)Nc1ccc(C#N)nc1 [Example 18-7, (2R,5S)-N-(6-Cyano-3-pyridyl)-4-(4-cyano-3-trifluoromethylphenyl)-2,5-dimethylpiperazine-1-carboxamide] | 220 to 222 | 6.66
